According to publication PMC6720511, “Synthesis and biological evaluation of novel N-(piperazin-1-yl)alkyl-1H-dibenzo[a,c]carbazole derivatives of dehydroabietic acid as potential MEK inhibitors” (Journal of Enzyme Inhibition and Medicinal Chemistry, 2019):

Key:
Format in all cases: cell-based, human
HepG2 cells [1] = assay: Annexin V-FITC/PI dual staining assay; conditions: HepG2, 2 µM (as printed in text), 48 h
Description: The extent of apoptosis was quantitatively measured using Annexin V-FITC/PI dual staining assay. HepG2 cells were seeded into a six-well plate at 5 × 10^5 cells per well in 10% foetal calf serum (FBS)-DMEM into six-well plates and treated with different concentrations of the indicated compound 10g for 48 h. The cells were detached with 0.25% trypsin, washed with ice-cold PBS for twice and then resuspended in 1 × Binding buffer (0.1 M Hepes/NaOH (pH 7.4), 1.4 M NaCl, 25 mM CaCl2). The cells were stained with 5 µL of Annexin V-FITC and 5 µL of PI (propidium iodide) to each tube. The cells were gently vortexed and incubated in the dark at room temperature for 15 min and then keep them at 4 °C. The samples were analysed by a flow cytometer (Becton-Dickinson FACSCalibur, NJ, USA) and data were analysed using the FlowJo software (Becton-Dickinson & Co, Totowa, NJ, USA).

HepG2 cells [2] = assay: Lactate dehydrogenase (LDH) leakage assay; conditions: HepG2, 5 µM, 24 h
Description: The cell membrane integrity was determined by LDH leakage assay by using a LDH assay kit (Beyotime, China). In brief, HepG2 cells were plated on 96-well plates at the density of 5 × 10^3 cells per well and allowed to attach overnight. After being incubated with compound 10g for 24 h, the supernatants were collected and centrifuged at the speed of 1000 rpm and were subjected to LDH detection as the description in the manual. The absorbance at 490 nm was measured by a Cytation 3 Cell Imaging Multi-Mode Reader (BioTek Instruments, Inc., Winooski, VT, USA).

[3] = Cell death inhibition assay; conditions: human, HepG2 cells, 10g alone, 10 µM, read-out: relative cell viability of HepG2 cells
Description: Figure 6. Compound 10g induced oncosis and apoptosis of HepG2 cells. (a) PD150606 and Z-VAD-FMK partially reversed compound 10g-induced cell death. HepG2 cells were incubated with PD150606, Z-VAD-FMK or Necrostatin-1 at indicated concentration for 24 h alone or in combination with compound 10g at indicated concentration for 24 h. (b) Compound 10g induced the degradation of α-tubulin and β-actin, and activated oncosis marker calpain-1 autolysis from the 80 kDa event to 76 kDa event in western blot analysis. *, p < 0.01; **, p < 0.01; #, p < 0.01; &, p < 0.001. (c) Compound 10g induced the upregulation of apoptotic protein Bax, caspase-3, caspase-9 and plasmic cytochrome c levels, and the downregulation of antiapoptotic protein Bcl-2 level. *, p < 0.001; **, p < 0.01; #, p < 0.01; and p < 0.01.

HepG2 cells [4] = assay: Western blot of oncosis and apoptosis markers
Description: HepG2 cells were seeded at a density of 5 × 10^6 cells per well and attached for 8 h, and then treated with different concentrations of compound 10g for 48 h. After the treatment, the cells were harvested and washed twice with PBS. The harvested cells were lysed with radio-immunoprecipitation assay (RIPA) lysis buffer (Beyotime Biotech., Nantong, China) with 1% cocktail (Sigma-Aldrich, USA). Whole-cell protein lysates were prepared and centrifuged at 12,000 rpm for 10 min at 4 °C. The total proteins were determined using Bradford reagent (Bio-Rad Laboratories, Inc., USA). Exactly 40 µg of protein per lane was separated through sodium dodecyl sulfate-polyacrylamide gel electrophoresis and then transferred onto a polyvinylidene difluoride membrane (Millipore, Bedford, MA, USA). The membranes were incubated with each antibody and detected through immunoblot analysis. All of the antibodies were purchased from Cell signaling Technology, Inc. (Boston, MA, USA) and diluted in accordance with the manufacturer’s instruction. Proteins were visualized using a C-Digit® imaging system (LI-COR Biosciences, Lincoln, NE, USA).

## CCOc1ccc2c(c1)c1c(n2CCN2CCNCC2)-c2cc(C(C)C)ccc2C2(C)CCCC(C)(C(=O)OC)C12 (stereo not shown) [Compound 10g, 2,3,4,4a,9,13c-Hexahydro-12-ethoxy-7-isopropyl-1,4a-dimethyl-9–(2-(piperazin-1-yl)ethyl)-1H-dibenzo[a,c]carbazole-1-carboxylic acid methyl ester]
HepG2 cells [1]
  percentage of early and late apoptotic cells: 60.02%
HepG2 cells [2]
  relative LDH leakage level: 93.03%
[3]
  viability at 24 h, 10 µM: 1.22%
HepG2 cells [4]
  level of cytochrome c, caspase-3 and caspase-9 (in words): increased dose-dependently
  ratio of Bax/Bcl-2 (in words): increased significantly
HepG2 cells [4]; 48 h
  calpain-1 autolysis (in words): autolysed from 80 kDa event to 76 kDa event in a dose-dependent manner
HepG2 cells [4]; dose-dependent
  level of α-tubulin and β-actin (in words): significant decrease
